The values below come from patent publication US20240024409A1, “N-f-MLF DERIVATIVES THAT INHIBIT FORMYL PEPTIDE RECEPTORS FOR THE TREATMENT OF DISEASE” (University of South Alabama, priority 2022, published 2024).

For test [1], the system named is Primary STAT3^mut bone marrow-derived mast cells (BMMC). In words: BMMC degranulation (LAMP-1 on the plasma membrane by flow cytometry). Format: cell-based, mice. Particulars: DNP-specific IgE then DNP; peptide added prior to DNP; varying concentrations. As for the experimental part:
Primary bone marrow-derived mast cells (BMMC) were cultured from STAT3^mut mice in RPMI-1640 Medium (Thermo Fisher Scientific) containing 10% fetal bovine serum (FBS), interleukin-3 (IL-3) and stem cell factor (SCF). To induce degranulation, BMMC were incubated with dinitrophenyl (DNP)-specific IgE followed by addition of DNP to crosslink IgE. To test effects of fMLFF and fMLYF, different concentrations were administered prior to the addition of DNP. Degranulation was measured by the amount of lysosomal-associated membrane protein 1 (LAMP-1) on the plasma membrane by flow cytometry.
Primary STAT3^mut BMMC were treated with varying concentrations of fMLFF and fMLYF (FIG. 3A and FIG. 3B). Data shown in FIG. 3B were summarized from 3 individual experiments; bars indicate means+SEM; **p<0.001; ****p<0.00001, 2-way ANOVA with Tukey's multiple comparison. Assays were performed independently with fMLFF and fMLYF; data shown are cumulative for experiments using fMLFF and fMLYF individually.

A further test deals with circulating IgE levels. In words: IgE production in vivo (serum IgE by ELISA). More on the design: species or system STAT3^mut mice. The following applies: 2.5 mg/kg once per week for 3 weeks. The protocol:
Groups (n=4-6/group) were treated with fMLYF (2.5 mg/kg) or vehicle once per week for 3 weeks. Serum was collected to measure effects of peptide treatment on circulating IgE levels via ELISA (FIG. 1 and FIG. 5).

For fMLFF, the “mast cell degranulation in vitro” value in test [1] is “attenuated”. Besides, the “IgE production in vivo” value in the test on circulating IgE levels is on record as “attenuated”.
